Test system: Subjects with Osteoarthritis of the Knee
Assay: Second Phase 2 study: safety (treatment-emergent adverse events)
Type: in vivo, human
Settings: 17.5 mg/knee, BID, N = 70
Excerpt: Safety assessments will be performed at each visit and will include assessment of AEs, vital signs (blood pressure, pulse rate, and oral temperature), clinical laboratories, physical examination, skin irritation, and electrocardiograms (ECGs) as indicated in the study flow chart, Table 47.
Safety assessments will include AEs, vital signs (blood pressures, pulse rate, and oral temperature), clinical laboratories, physical examination, skin irritation, and ECGs at various time points during the study as indicated in the study flow chart.
Adverse events of interest include: local skin reactions around the treated knee(s), upper stomach pain, GI bleeding, serious cardiovascular side effects (e.g., thrombotic events, myocardial infarction, or stroke), jaundice, elevated liver function tests, and nausea.
Safety analyses will be conducted on the SAS. Safety parameters will be listed and summarized using standard descriptive statistics, as appropriate. No formal statistical analyses are planned.

CCN(CC)CCOC(=O)C(C)c1ccc(CC(C)C)cc1 (stereo not shown) [2-(diethylamino)ethyl 2-(4-isobutylphenyl)propionate]
Aspartate Aminotransferase Increased: number of adverse events: 1
Aspartate Aminotransferase Increased: percentage of subjects with adverse events: 1.4%
Aspartate Aminotransferase Increased: subjects with adverse events: 1
Back Pain: number of adverse events: 1(%)[1]
Back Pain: subjects with adverse events, number (percentage): 1(%)[1]
Constipation: number of adverse events: 1
Constipation: percentage of subjects with adverse events: 1.4%
Constipation: subjects with adverse events: 1
Cough: number of adverse events: 2
Cough: subjects with adverse events, number (percentage): 2(2.9%)
Dizziness: number of adverse events: 1
Dizziness: subjects with adverse events, number (percentage): 1(1.4%)
Frequency of Positive Fecal Occult Blood Test: 5
Gastrointestinal Disorders: number of adverse events: 5
Gastrointestinal Disorders: percentage of subjects with adverse events: 5.7%
Gastrointestinal Disorders: subjects with adverse events: 4
Gout: number of adverse events: 1
Gout: percentage of subjects with adverse events: 1.4%
Gout: subjects with adverse events: 1
Headache: number of adverse events: 1
Headache: subjects with adverse events, number (percentage): 1(1.4%)
Hypercholesterolaemia: number of adverse events: 2
Hypercholesterolaemia: percentage of subjects with adverse events: 2.9%
Hypercholesterolaemia: subjects with adverse events: 2
Hypertriglyceridemia: number of adverse events: 6
Hypertriglyceridemia: percentage of subjects with adverse events: 8.6%
Hypertriglyceridemia: subjects with adverse events: 6
Infections and Infestations: number of adverse events: 14
Infections and Infestations: subjects with adverse events, number (percentage): 13(18.6%)
Investigations: number of adverse events: 1
Investigations: percentage of subjects with adverse events: 1.4%
Investigations: subjects with adverse events: 1
Metabolism and Nutrition Disorders: number of adverse events: 9
Metabolism and Nutrition Disorders: percentage of subjects with adverse events: 11.4%
Metabolism and Nutrition Disorders: subjects with adverse events: 9
Muscle Spasms: number of adverse events: 3
Muscle Spasms: subjects with adverse events, number (percentage): 2
Musculoskeletal Pain: number of adverse events: 2
Musculoskeletal Pain: subjects with adverse events, number (percentage): 1
Musculoskeletal and Connective Tissue Disorders, Overall Total: number of adverse events: 8
Musculoskeletal and Connective Tissue Disorders, Overall Total: subjects with adverse events, number (percentage): 6(8.6%)
Neck Pain: number of adverse events: 1(%)[1]
Neck Pain: subjects with adverse events, number (percentage): 1(%)[1]
Nervous System Disorders: number of adverse events: 2
Nervous System Disorders: subjects with adverse events, number (percentage): 2(2.9%)
Pain in Extremity: number of adverse events: 1(%)[1]
Pain in Extremity: subjects with adverse events, number (percentage): 1(%)[1]
Rash: number of adverse events: 2
Rash: percentage of subjects with adverse events: 4.2%
Rash: subjects with adverse events: 2
Respiratory, Thoracic and Mediastinal Disorders: number of adverse events: 2
Respiratory, Thoracic and Mediastinal Disorders: subjects with adverse events, number (percentage): 2(2.9%)
Skin Irritation: number of adverse events: 4
Skin Irritation: percentage of subjects with adverse events: 1.4%
Skin Irritation: subjects with adverse events: 3
Skin and Subcutaneous Tissue Disorders: number of adverse events: 6
Skin and Subcutaneous Tissue Disorders: percentage of subjects with adverse events: 7.1%
Skin and Subcutaneous Tissue Disorders: subjects with adverse events: 5
Subjects with Positive Fecal Occult Blood Test: 5
Subjects with Positive Fecal Occult Blood Test, percentage: 7.1%
Toothache: number of adverse events: 1
